One data set concerns the target T1, RyR2 (Mus musculus, UniProt E9Q401).
T1 construct: expressed in transfected cells; host or cells: HEK-293 cells stably expressing R-CEPIA1er with doxycycline-inducible WT RyR2
Put plainly: Time-lapse [Ca2+]ER assay (RyR2 R-CEPIA1er assay) in HEK-293 cells with inducible WT RyR2. In kind it is cell-based. Particulars: for RyR2 effect class: 25 μM (S107 1 mM per Figure 2); for RyR2 effect class / EC50: HEK-293 RyR2 R-CEPIA1er cells; for EC50: value, interval; for effect on [Ca2+]ER / R-CEPIA1er fluorescence (F/F0): 25 μM, vs 0.1 v/v% DMSO. The text has this: To assess the functional potency of novel agents for modulating RyR2 channel activity, we measured changes in Ca^2+ levels in ER of HEK-293 cells with inducible expression of wild-type RyR2 (WT RyR2).[33],[34] Because the expression of WT RyR2 introduces an additional spontaneous Ca^2+ leak from the ER, these cells are suitable for our purpose of testing potential RyR2 stabilizers.[35] The cells additionally stably express the Ca^2+ fluorescence indicator R-CEPIA1er, which is a genetically encoded sensor protein of Ca^2+ in the ER (the cell line was a gift from T. Murayama, Department of Pharmacology, Juntendo University School of Medicine, Tokyo, Japan).[36]
The addition of these compounds, which are known to inhibit excessive cardiac RyR2 activity, should reduce Ca^2+ leak from the ER, thus increasing the R-CEPIA1er fluorescence.
The fluorescence plate reader [Ca^2+]ER assay was performed according to the slightly modified protocol of Murayama and Kurebayashi.[36] […] After the cells were inducted with doxycycline for 24 h, changes in ER calcium concentrations [Ca^2+]ER were measured on a multiwell plate reader TECAN Spark 20 M at 37 °C. The 1000 × stock solutions of the test compounds were prepared in DMSO. Briefly, the culture medium was removed and 100 μL of Tyrode’s solution containing 2 mM CaCl2 was added to the cells. The time courses were recorded in each well. Fluorescence was evoked by a 560 nm excitation wavelength and collected in a bottom-read mode at 610 nm. Data was recorded every 10 s, exposure −20 flashes, excitation bandwidth −20 nm, emission bandwidth −20 nm. 100 μL of 0–100 μM solution of test compound in Tyrode’s solution containing 2 mM CaCl2 was injected in each well (speed 100 μL/s) at the 90 s time point. […] The 0.1 v/v% DMSO and 2 mM CaCl2 Tyrode’s solution was used as a control.
The dose–response curves were calculated using the software package GraphPad Prism version 8.3.1. (GraphPad Software, Inc.). All data are presented as mean ± SD in three independent experiments. Y = bottom + (top – bottom)/(1 + 10^((LogEC50 – X) × HillSlope)) was used, where HillSlope describes the steepness of the curve, and top and bottom are plateaus in the units of the Y-axis.

The nature of data set [1]: CytoTox-Glo Cytotoxicity Assay. The conditions noted are these: mouse; HL-1 cells, 100 μM solutions, 24 h incubation. In kind it is cell-based. As for the experimental part: Cell viability was assessed using the CytoTox-Glo Cytotoxicity Assay according to the manufacturing procedure (Promega GmbH). Briefly, HL-1 cells were cultivated for 24 h in black-walled, clear-bottom 96-well microplates (Corning) covered with fibronectin in DMEM, containing different concentrations of the tested compound (10,000 cells/well). Luminescence of a luminogenic peptide substrate was measured before and after the addition of the lysis reagent (digitonin). The viable cell contribution was determined by a subtractive method. 0.1% DMSO-treated cells were taken as a control.

Data set [2] can be described thus: Membrane permeability, PermeaPad Plate (cell-free transport model). The class given is in vitro ADME. The conditions noted are these: for Pe: 24 h, room temperature; for Pe class (low/medium/high; poor): class word printed beside Pe, no key given. On the procedure: Membrane permeability was assessed using PermeaPad Plate according to the manufacturing procedure (innoME GmbH, Espelkamp, Germany). Briefly, 200 μL of water was added into the acceptor plate. 200 μL of 100–500 μM test compound in water was added directly to the well membranes of the donor plate. The donor plate contains a biomimetic membrane for simulating passive mass transfer through different barriers in the body. Then, the donor plate was placed into the acceptor plate wells and incubated at room temperature for 24 h in the dark. To determine the peak absorbance of test compounds, absorbance spectra of acceptor solutions and initial solutions for each test compound were read out. The permeability rate (Pe) was calculated using the formula:
[drawing 1] , where ODA is the absorbance of acceptor solution and ODE is the absorbance of the standard solution; if the compound is able to permeabilize the membrane and fully reach equilibrium, 250 μM will be the final concentration of solution in the donor and acceptor wells. The coefficient C was calculated using the formula:
[drawing 2] , where VA is the acceptor volume (cm^3), VD is the donor volume (cm^3), the membrane area is 0.24 cm^2, and the time is 86,400 s.

The source of these data is article PMC10726367 (Journal of Medicinal Chemistry, 2023).

As usually defined, the viability is a per cent measure of how many cells are alive, often set against a control. Broadly, the EC50 is the concentration at which the effect is half-maximal.

T1 sequence (E9Q401 whole entry): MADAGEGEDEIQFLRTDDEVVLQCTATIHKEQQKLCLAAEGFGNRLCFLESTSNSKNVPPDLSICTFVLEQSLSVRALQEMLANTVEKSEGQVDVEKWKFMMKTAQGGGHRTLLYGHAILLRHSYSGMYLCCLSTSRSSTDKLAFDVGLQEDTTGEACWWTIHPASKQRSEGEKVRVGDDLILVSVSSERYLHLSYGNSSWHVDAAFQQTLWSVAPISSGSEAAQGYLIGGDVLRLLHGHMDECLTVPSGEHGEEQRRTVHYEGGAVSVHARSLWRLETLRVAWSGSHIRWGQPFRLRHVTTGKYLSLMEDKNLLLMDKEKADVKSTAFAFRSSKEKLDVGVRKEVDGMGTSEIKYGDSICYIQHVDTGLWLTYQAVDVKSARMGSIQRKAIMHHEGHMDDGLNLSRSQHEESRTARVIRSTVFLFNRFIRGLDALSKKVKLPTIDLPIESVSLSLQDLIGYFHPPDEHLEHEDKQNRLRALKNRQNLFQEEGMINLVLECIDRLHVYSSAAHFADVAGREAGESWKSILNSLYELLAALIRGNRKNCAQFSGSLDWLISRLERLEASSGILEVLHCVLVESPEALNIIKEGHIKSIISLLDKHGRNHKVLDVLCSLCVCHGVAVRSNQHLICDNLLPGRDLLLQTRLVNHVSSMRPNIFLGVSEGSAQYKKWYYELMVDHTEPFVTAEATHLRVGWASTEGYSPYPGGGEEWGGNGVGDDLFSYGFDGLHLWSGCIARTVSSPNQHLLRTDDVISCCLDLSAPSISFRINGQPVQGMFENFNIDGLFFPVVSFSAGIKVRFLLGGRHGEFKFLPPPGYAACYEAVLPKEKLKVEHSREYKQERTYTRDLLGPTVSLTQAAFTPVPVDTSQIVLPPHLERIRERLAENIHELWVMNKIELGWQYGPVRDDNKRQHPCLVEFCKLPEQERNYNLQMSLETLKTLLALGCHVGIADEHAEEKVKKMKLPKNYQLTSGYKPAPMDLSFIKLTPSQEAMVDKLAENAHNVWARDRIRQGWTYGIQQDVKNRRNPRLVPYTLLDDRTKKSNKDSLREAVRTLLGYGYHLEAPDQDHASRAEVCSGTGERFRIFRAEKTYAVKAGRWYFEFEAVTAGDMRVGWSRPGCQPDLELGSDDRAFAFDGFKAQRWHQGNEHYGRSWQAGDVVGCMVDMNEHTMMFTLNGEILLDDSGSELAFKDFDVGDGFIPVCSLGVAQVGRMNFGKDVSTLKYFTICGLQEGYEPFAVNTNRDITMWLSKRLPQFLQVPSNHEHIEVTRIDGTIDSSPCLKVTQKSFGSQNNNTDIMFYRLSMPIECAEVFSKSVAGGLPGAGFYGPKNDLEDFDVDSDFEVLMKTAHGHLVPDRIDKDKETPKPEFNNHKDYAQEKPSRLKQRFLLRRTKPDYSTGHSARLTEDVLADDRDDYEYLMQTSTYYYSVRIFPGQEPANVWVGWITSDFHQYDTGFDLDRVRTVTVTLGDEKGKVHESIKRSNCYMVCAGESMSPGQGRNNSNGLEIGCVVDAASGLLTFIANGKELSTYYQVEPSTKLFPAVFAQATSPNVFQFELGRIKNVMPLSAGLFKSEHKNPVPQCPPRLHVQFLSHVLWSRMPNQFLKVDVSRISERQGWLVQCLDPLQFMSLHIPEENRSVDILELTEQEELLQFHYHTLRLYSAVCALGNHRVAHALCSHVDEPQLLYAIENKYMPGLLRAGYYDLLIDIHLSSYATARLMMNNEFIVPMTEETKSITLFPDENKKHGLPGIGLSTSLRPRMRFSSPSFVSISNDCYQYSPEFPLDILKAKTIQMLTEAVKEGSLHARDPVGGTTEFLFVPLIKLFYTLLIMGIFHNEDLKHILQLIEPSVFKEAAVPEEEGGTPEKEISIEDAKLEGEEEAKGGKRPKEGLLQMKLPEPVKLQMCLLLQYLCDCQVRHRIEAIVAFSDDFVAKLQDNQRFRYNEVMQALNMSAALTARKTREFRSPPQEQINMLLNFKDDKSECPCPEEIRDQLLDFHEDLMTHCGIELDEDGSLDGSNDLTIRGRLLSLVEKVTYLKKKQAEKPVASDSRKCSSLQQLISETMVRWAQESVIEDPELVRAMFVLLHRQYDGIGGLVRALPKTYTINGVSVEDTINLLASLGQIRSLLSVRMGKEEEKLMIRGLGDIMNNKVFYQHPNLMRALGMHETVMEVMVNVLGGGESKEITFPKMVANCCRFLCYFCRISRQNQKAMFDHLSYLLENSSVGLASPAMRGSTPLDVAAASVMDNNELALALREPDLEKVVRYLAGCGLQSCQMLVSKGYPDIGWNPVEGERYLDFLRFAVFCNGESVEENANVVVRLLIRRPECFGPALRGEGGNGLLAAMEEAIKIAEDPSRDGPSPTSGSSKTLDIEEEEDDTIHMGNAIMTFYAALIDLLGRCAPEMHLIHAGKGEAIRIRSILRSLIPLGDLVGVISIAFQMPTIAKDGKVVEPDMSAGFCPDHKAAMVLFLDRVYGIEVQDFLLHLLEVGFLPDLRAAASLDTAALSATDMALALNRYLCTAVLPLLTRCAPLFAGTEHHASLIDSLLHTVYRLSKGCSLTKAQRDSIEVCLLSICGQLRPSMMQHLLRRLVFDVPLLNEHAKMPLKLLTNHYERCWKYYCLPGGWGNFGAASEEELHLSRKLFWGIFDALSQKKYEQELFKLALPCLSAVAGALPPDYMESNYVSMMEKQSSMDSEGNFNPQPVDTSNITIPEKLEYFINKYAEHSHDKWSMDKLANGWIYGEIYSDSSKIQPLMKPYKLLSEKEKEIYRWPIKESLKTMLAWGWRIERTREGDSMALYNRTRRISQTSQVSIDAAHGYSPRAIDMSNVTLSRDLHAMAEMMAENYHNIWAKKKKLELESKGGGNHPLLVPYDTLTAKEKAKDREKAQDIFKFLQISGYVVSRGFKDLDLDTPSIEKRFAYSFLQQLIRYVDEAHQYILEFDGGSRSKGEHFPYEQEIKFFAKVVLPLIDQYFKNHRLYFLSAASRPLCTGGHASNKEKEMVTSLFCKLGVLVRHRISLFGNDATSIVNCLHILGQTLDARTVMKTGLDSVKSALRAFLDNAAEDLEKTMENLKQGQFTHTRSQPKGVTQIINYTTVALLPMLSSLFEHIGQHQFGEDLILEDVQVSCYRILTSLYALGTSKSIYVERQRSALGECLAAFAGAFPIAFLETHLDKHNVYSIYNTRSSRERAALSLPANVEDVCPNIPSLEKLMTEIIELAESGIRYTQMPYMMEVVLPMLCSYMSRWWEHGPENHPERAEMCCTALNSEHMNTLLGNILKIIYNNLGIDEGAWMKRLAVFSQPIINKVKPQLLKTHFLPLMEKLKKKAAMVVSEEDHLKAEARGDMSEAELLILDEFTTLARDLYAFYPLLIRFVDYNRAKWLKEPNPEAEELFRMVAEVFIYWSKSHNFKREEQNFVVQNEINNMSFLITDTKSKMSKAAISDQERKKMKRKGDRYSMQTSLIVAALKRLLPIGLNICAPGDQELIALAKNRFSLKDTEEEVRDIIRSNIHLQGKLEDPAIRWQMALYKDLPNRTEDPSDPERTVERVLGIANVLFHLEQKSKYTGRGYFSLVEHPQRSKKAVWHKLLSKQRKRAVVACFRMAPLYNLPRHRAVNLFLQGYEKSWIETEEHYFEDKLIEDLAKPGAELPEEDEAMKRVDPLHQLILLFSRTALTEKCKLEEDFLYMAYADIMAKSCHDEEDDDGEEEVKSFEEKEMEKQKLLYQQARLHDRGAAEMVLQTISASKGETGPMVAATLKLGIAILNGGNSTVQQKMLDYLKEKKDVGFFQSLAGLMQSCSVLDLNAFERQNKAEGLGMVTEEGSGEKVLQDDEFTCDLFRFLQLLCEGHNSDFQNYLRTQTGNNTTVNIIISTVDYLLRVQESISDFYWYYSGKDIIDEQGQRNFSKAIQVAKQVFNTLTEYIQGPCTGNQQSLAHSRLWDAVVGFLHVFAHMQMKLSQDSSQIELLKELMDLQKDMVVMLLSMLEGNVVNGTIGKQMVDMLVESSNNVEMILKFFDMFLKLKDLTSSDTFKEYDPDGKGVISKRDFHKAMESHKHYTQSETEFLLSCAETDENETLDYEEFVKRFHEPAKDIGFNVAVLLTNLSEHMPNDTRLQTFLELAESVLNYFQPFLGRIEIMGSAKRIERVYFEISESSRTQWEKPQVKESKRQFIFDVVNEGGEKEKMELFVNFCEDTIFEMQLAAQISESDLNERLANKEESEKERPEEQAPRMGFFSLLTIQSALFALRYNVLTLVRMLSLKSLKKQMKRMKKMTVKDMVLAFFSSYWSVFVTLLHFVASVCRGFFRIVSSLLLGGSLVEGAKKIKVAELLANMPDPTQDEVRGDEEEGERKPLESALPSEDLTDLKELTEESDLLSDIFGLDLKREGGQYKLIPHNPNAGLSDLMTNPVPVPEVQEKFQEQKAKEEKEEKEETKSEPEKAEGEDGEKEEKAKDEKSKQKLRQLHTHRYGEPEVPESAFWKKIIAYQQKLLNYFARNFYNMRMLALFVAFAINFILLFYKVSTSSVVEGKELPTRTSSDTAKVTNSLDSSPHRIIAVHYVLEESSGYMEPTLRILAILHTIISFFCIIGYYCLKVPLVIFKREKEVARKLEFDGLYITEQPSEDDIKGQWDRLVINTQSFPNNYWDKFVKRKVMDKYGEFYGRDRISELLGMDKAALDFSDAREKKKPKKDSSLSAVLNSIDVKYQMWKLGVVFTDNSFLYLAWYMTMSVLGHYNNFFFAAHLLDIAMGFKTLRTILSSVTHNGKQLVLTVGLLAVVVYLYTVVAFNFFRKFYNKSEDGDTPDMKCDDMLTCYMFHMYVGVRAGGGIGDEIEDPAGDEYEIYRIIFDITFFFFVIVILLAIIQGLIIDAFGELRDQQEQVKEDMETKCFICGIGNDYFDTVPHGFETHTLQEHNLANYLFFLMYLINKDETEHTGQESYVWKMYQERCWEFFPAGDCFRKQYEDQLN

For `COc1ccc2c(c1)CN(CCCCNCCCCC1(O)CC1)CCS2` [11a, 1-(4-((4-(7-Methoxy-2,3-dihydrobenzo[1,4-f]thiazepin-4(5H)-yl)butyl)amino)butyl)cyclopropan-1-ol], the RyR2 effect class entry on RyR2 is recorded as “++”. This molecule also displayed a viability at 24 h, 100 μM in data set [1] of 84%. Also, in data set [2], the Pe is listed as 0.8 10^–6 cm/s; the “Pe class (low/medium/high; poor)” value was “poor permeability and low”.
With `COc1ccc(OCCCNCCCCC2(O)CC2)cc1` [11b, 1-(4-((3-(4-Methoxyphenoxy)propyl)amino)butyl)cyclopropan-1-ol], at RyR2, the RyR2 effect class entry is “+++” and a half-maximal response (EC50) required 0.0815 µM. For the same molecule, the viability at 24 h, 100 μM in data set [1] came out at 100%. In data set [2], the Pe was 4.0 10^–6 cm/s and the “Pe class (low/medium/high; poor)” value is “high”.
As for `COc1ccc(SCCCNCCCCC2(O)CC2)cc1` [11c, 1-(4-((3-((4-Methoxyphenyl)thio)propyl)amino)butyl)cyclopropan-1-ol], on RyR2, the RyR2 effect class entry was “++” and the concentration giving a half-maximal response (EC50) amounted to 0.0102 µM. In data set [1], the viability at 24 h, 100 μM came out at 73%. Moreover, in data set [2], the Pe was 6.9 10^–6 cm/s and the “Pe class (low/medium/high; poor)” value is recorded as “high”.
Turning to `COc1ccc2c(c1)CN(CCCCC1(O)CC1)CCS2` [11d, 1-(4-(7-Methoxy-2,3-dihydrobenzo[1,4-f]thiazepin-4(5H)-yl)butyl)cyclopropan-1-ol], the “effect on [Ca2+]ER / R-CEPIA1er fluorescence (F/F0)” value at RyR2 was “no significant RyR2-stabilizing effect”. Besides, in data set [1], the viability at 24 h, 100 μM came out at 95%. In addition, in data set [2], the Pe was 3.6 10^–6 cm/s and the “Pe class (low/medium/high; poor)” value is recorded as “high”.
`COc1ccc2c(c1)CN(CCCCN(CCCCC1(O)CC1)CCCCC1(O)CC1)CCS2` [12a, 1,1′-(((4-(7-Methoxy-2,3-dihydrobenzo[1,4-f]thiazepin-4(5H)-yl)butyl)azanediyl)bis(butane-4,1-diyl))bis(cyclopropan-1-ol)]: on RyR2, the RyR2 effect class entry is recorded as “+++”. Besides, at RyR2 (concentration range 10^–11 to 10^–4 M), the “dose response of F/F0 ([Ca2+]ER)” value is on record as “most pronounced effect of all of the other compounds”. This molecule also came in with a viability at 24 h, 100 μM in data set [1] of 80%. In addition, in data set [2], the Pe was 0.6 10^–6 cm/s; the “Pe class (low/medium/high; poor)” value is “poor permeability and low”.
With `COc1ccc(SCCCN(CCCCC2(O)CC2)CCCCC2(O)CC2)cc1` [12c, 1,1′-(((3-((4-Methoxyphenyl)thio)propyl)azanediyl)bis(butane-4,1-diyl))bis(cyclopropan-1-ol)], on RyR2, the RyR2 effect class result is recorded as “+” and the midpoint of the response, the EC50, lay at 0.0186 µM. Also, the viability at 24 h, 100 μM in data set [1] is 90%. Besides, in data set [2], the Pe is 3.6 10^–6 cm/s and the “Pe class (low/medium/high; poor)” value is on record as “high”.
As for `COc1ccc2c(c1)CN(Cc1ccc(C(=O)O)cc1)CCS2` [ARM210, reference compound], at RyR2, the RyR2 effect class entry is “++” and the “effect on [Ca2+]ER / R-CEPIA1er fluorescence (F/F0)” value is “significantly increased [Ca^2+]ER”. The viability at 24 h, 100 μM in data set [1] worked out at 90%. Besides, in data set [2], the Pe is 6.8 10^–6 cm/s and the “Pe class (low/medium/high; poor)” value is given as “high”.
